Results: article PMC4639779, “Peptide Functionalized Gold Nanorods for the Sensitive Detection of a Cardiac Biomarker Using Plasmonic Paper Devices” (Scientific Reports, 2015)
Several values for one entry are separate records, joined by “and”; a condition that tells them apart may be missing. Equal entries are not always repeated.

Assays:
cTnI = target: T1, cTnI (Homo sapiens, UniProt P19429); settings: identified from a phage display peptide library; cited from earlier work
T1 construct: purchased Life Diagnostics, USA
Text: Gold nanorods (AuNR) are an attractive choice as plasmonic nanotransducers for label-free sensing because of their geometrical tunability of LSPR wavelength and high sensitivity. We synthesized AuNRs using a seed-mediated approach with a length of 47.3 ± 2.3 nm and a diameter of 20.2 ± 1.4 nm (Fig. 2A). The human troponin I binding peptide (-FYSHSFHENWPS-), identified from a phage display peptide library, with nanomolar (nM) binding affinity to cTnI was employed here as the biorecognition element. The conjugation of the peptide to AuNRs as achieved by introducing a cysteine residue at ...

[1] = Distance-dependent refractive index sensitivity of AuNR (layer-by-layer); format: physicochemical
Text: We probed the distance-dependent sensitivity of the AuNRs, nanotransducers used in this study, by depositing polyelectrolyte multilayers using layer-by-layer (LbL) assembly. Extinction spectra were collected after the deposition of each bilayer comprised of poly(allylamine hydrocholoride) (PAH) as a positively charged polymer and poly(styrene sulfonate) (PSS) as a negatively charged polymer. […] It is instructive to define a parameter called distance-dependent refractive index sensitivity (σ), which is the LSPR shift caused by the deposition of a 1 nm thick dielectric layer (polyelectrolyte multilayers in the present case) at a predetermined distance from the surface of the nanotransducer. The extinction measurements after troponin binding to the bioconjugated AuNR were performed in the dry state. So, considering that the thickness of peptide and antibody in their dry state is ~1 nm and ~4.2 nm for peptide and antibody, respectively, the values of σ are computed as shown in Fig. 5E. For peptide recognition elements, σ is found to be 6.67 nm/nm whereas in case of antibody, σ is found to be 4.33 nm/nm. From the distance-dependent refractive index sensitivity measurements, it can be seen that the local refractive index sensitivity with peptide recognition elements is nearly 50% higher than compared to that with antibody-based recognition elements. […] This discrepancy can possibly be due to the higher number of cTnI molecules bound on the AuNR surface in the case of the peptide recognition elements compared to antibodies. The low steric hindrance of the peptides facilitates a higher density of the recognition elements on the surface of the Au nanotransducers and thus a higher density of cTnI molecules. This observation will be further explored in future studies in order to maximize the sensitivity of our BPDs.
Glass substrates were modified by 1% P2VP followed by the adsorption of AuNR. […]

cTnI (troponin I) = assay: LSPR detection of cTnI with bioplasmonic paper device in buffer; format: binding, human; settings: highest concentration tested, 3.53 μg/ml cTnI
Description: To probe the sensing capability of the BPDs, we exposed the BPDs to troponin I (3.53 μg/ml in 0.1 M TBS pH 8.0). […] The higher sensitivity of peptide-AuNR compared to antibody-AuNR is due to differences in the thickness of the peptide and antibody adsorbate layer as will be discussed in detail below. To probe the limit of detection in both cases, BPDs with bioconjugated AuNR were exposed to varying concentrations of cTnI. […] To compare the selectivity of the peptide and antibody towards cTnI, we used human serum albumin (HSA) as an interfering protein (Supplemental Figure S11). […] A regular laboratory filter paper (Whatman #1) was used for the absorption of nanorods. A 1 cm × 1 cm paper strip is taken and immersed in a solution of AuNR conjugates (peptide and antibody) and left overnight at 4 °C. The paper strip was taken out and washed with tris buffer and immersed in different concentrations of troponin in tris buffer (pH 8) for 2 hours at 4 °C. It was removed and washed thoroughly with tris buffer and dried under a stream of nitrogen. Extinction spectra from paper substrates were collected using a CRAIC microspectrophotometer (QDI 302) coupled to a Leica optical microscope (DM 4000 M) with 20× objective in the range of 450–800 nm with 10 accumulations and 100 ms exposure time in reflection mode. The spectral resolution of the microspectrophotometer is 0.2 nm. […]

[2] = AFM dry state thickness of recognition layer on AuNR; format: physicochemical
Description: We have also used dynamic light scattering (DLS) to monitor the changes in the hydrodynamic size of the AuNR upon bioconjugation with cTnI binding peptide or anti-cTnI. […] The dry state thickness of the peptide and antibody recognition layers was measured using atomic force microscopy (AFM; Supplemental Figure S6).
Now we turn our attention to the structure-based functional mechanism of the peptide-conjugated BPDs. The structure and thickness layer of the peptide recognition element on the gold surface was also investigated using molecular dynamic simulations (described in the supplemental section). […] The amino acid Trp[10] in the peptide (a possible binding residue to cTnI) is distal to the gold surface and accessible for cTnI binding. […] These key residues provide structural information and will be used in further studies for the optimization of peptide recognition elements for cTnI. Of importance to this study, the thickness of the biomolecule adlayer can be obtained from our molecular dynamic simulations. […] The smaller thickness of the peptide layer renders higher sensitivity of BPDs using peptide recognition elements. For calculating the thickness layer from our computational models, the gold surface is aligned in the XY plane and the thickness of the peptide or peptide-cTnI complex on the gold surface is calculated as the maximum difference of the Z-coordinates. […]

[3] = target: T2, Human Cardiac Troponin-I Recombinant (human, UniProt P19429 1-210); assay: pull-down; peptide-conjugated AuNRs with cTnI; SDS-PAGE, blotted with polyclonal goat antibody; settings: both partners purified
T2 construct: human cardiac troponin I, recombinant, bought; also called cTnI; source: bought: Life Diagnostics, USA (recombinant)
T2 sequence (P19429 whole entry): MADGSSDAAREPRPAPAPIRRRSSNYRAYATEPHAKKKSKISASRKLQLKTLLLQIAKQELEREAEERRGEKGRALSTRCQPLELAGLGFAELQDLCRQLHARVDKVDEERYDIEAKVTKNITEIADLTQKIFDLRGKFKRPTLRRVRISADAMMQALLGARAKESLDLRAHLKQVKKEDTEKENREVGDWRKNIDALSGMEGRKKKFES

T1 sequence (P19429 whole entry): as above

-FYSHSFHENWPS-
binding affinity to cTnI (cTnI): nanomolar

-FYSHSFHENWPSC- [cysteine-modified peptide]
distance-dependent refractive index sensitivity (σ) ([1]; AuNRs on glass, PAH/PSS multilayers, at dry thickness of ~1 nm (peptide) or ~4.2 nm (antibody)): 6.67 nm/nm | corresponding LSPR shift from the distance-dependence curve ([1]; from σ curve of Fig. 5E): 24.5 nm | local refractive index sensitivity higher than with antibody-based recognition elements ([1]; peptide vs antibody): ~50% | LSPR shift higher than with antibodies as recognition elements (cTnI (troponin I)): ~100% | thickness of recognition layer on AuNR [2]: 0.96 nm and ~ 0.9 nm

B1: cysteine-modified human troponin I binding peptide (-FYSHSFHENWPSC-) (peptide)
peptide: FYSHSFHENWPSC
notes: In all assays the peptide was attached to gold (Au surface of the QCM, or gold nanorods) by an Au-S linkage through its C-terminal cysteine; source: synthetic peptide, bought: Genscript USA Inc
binding result [3]: binds
